Patent US6849612B2, “Oligonucleotide modulation of cell adhesion” (ISIS Pharmaceuticals, Inc., priority 1993, dated 2005)
Strand notation (5' to 3'): a small letter for the sugar, then the base; units joined by * are phosphorothioate-linked, units joined directly phosphodiester-linked; [ ] holds rarer units or linkages, { } end groups; capitals alone tell only the bases. d = 2'-deoxy (DNA)

Assays:
ICAM-1 [1] = assay: Immunoprecipitation of 35S-labelled ICAM-1 from A549 cells; type: cell-based, human; settings: 1 μM oligonucleotide
Experimental: The specificity of the antisense oligonucleotides ISIS 1570 and ISIS 1939 for ICAM-1 was evaluated by immunoprecipitation of ^35S-labelled proteins. A549 cells were grown to confluence in 25 cm^2 tissue culture flasks and treated with antisense oligonucleotides as described in Example 4. The cells were stimulated with interleukin-1β for 14 hours, washed with methionine-free DMEM plus 10% dialyzed fetal calf serum, and incubated for 1 hour in methionine-free medium containing 10% dialyzed fetal calf serum, 1 μM oligonucleotide and interleukin-1β as indicated. ^35S-Methionine/cysteine mixture (Tran^35S-label, purchased from ICN, Costa Mesa, Calif.) was added to the cells to an activity of 100 μCi/ml and the cells were incubated an additional 2 hours. Cellular proteins were extracted by incubation with 50 mM Tris-HCl pH 8.0, 150 mM NaCl, 1.0% NP-40, 0.5% deoxycholate and 2 mM EDTA (0.5 ml per well) at 4° C. for 30 minutes. The extracts were clarified by centrifugation at 18,000×g for 20 minutes. The supernatants were preadsorbed with 200 μl protein G-Sepharose beads (Bethesda Research Labs, Bethesda Md.) for 2 hours at 4° C., divided equally and incubated with either 5 μg ICAM-1 monoclonal antibody (purchased from AMAC Inc., Westbrook Me.) or HLA-A, B antibody (W6/32, produced by murine hybridoma cells obtained from the American Type Culture Collection, Bethesda, Md.) for 15 hours at 4° C. Immune complexes were trapped by incubation with 200 μl of a 50% suspension of protein G-Sepharose (v/v) for 2 hours at 4° C., washed 5 times with lysis buffer and resolved on an SDS-polyacrylamide gel. Proteins were detected by autoradiography.

ICAM-1 [2] = assay: ELISA screening for ICAM-1 expression in interleukin-1β-stimulated cells (HUVEC and A549); type: cell-based, human; settings: for inhibition of ICAM-1 expression, relative activity in words: interleukin-1β-stimulated cells, two cell lines (HUVEC, A549); for inhibition of ICAM-1 expression after premixing with respective sense strand: premixed/prehybridized at equal molar concentrations with sense strand (ISIS 1575 or ISIS 2115)
[3] = tested on: adherence of HL-60 cells to human umbilical vein endothelial cells; assay: Cell adherence assay: DMSO differentiated HL-60 cells to TNF treated HUVEC; type: cell-based
Experimental: Target cells are grown as a monolayer in a multiwell plate, treated with oligonucleotide followed by cytokine. The adhering cells are then added to the monolayer cells and incubated for 30 to 60 minutes at 37° C. and washed to remove nonadhering cells. Cells adhering to the monolayer may be determined either by directly counting the adhering cells or prelabeling the cells with a radioisotope such as ^51Cr and quantitating the radioactivity associated with the monolayer as described. Dustin and Springer, J. Cell Biol. 1988, 107, 321-331. Antisense oligonucleotides may target either ICAM-1, VCAM-1 or ELAM-1 in the assay.
An example of the effects of antisense oligonucleotides targeting ICAM-1 mRNA on the adherence of DMSO differentiated HL-60 cells to tumor necrosis factor treated human umbilical vein endothelial cells is shown in FIG. 7. Human umbilical vein endothelial cells were grown to 80% confluence in 12 well plates. The cells were treated with 2 μM oligonucleotide diluted in Opti-MEM containing 8 μM DOTMA for 4 hours at 37° C. The medium was removed and replaced with fresh endothelial cell growth medium (EGM-UV) containing 2 μM of the indicated oligonucleotide and incubated 4 hours at 37° C. Tumor necrosis factor, 1 ng/ml, was added to cells as indicated and cells incubated for an additional 19 hours. The cells were washed once with EGM-UV and 1.6×10^6 HL-60 cells differentiated for 4 days with 1.3% DMSO added. The cells were allowed to attach for 1 hour at 37° C. and gently washed 4 times with Dulbecco's phosphate-buffered saline (D-PBS) warmed to 37° C. Adherent cells were detached from the monolayer by addition of 0.25 ml of cold (4EC) phosphate-buffered saline containing 5 mM EDTA and incubated on ice for 5 minutes. The number of cells removed by treatment with EDTA was determined by counting with a hemocytometer. Endothelial cells detached from the monolayer by EDTA treatment could easily be distinguished from HL-60 cells by morphological differences. In the absence of tumor necrosis factor, 3% of the HL-60 cells bound to the endothelial cells. Treatment of the endothelial cell monolayer with 1 ng/ml tumor necrosis factor increased the number of adhering cells to 59% of total cells added (FIG. 7).
Human umbilical vein endothelial (HUVEC) cells were grown and treated with oligonucleotides as in Example 4. Cells were treated with either ISIS 1939, ISIS 1940, or the control oligonucleotide ISIS 1821 for 4 hours, then stimulated with TNF-α for 20 hours. Basal HUVEC minimally bound HL-60 cells, while TNF-stimulated HUVEC bound 19% of the total cells added. Pretreatment of the HUVEC monolayer with 0.3 ìM ISIS 1939 reduced the adherence of HL-60 cells to basal levels, as shown in FIG. 11.

Substance	decrease of ICAM-1 synthesis (ICAM-1 [1]; 5 units/ml interleukin-1β)	inhibition of ICAM-1 expression, relative activity in words (ICAM-1 [2])	inhibition of ICAM-1 expression after premixing with respective sense strand (ICAM-1 [2])	HL-60 cells adhering, % of total cells added ([3]; 2 μM oligonucleotide, HUVEC treated with 1 ng/ml tumor necrosis factor, control 59%) [%]	number of HL-60 cells adhering to the monolayer ([3]; 2 μM oligonucleotide, absence of tumor necrosis factor treatment)	ICAM-1 synthesis (ICAM-1 [1]; interleukin-1β)	adherence of HL-60 cells ([3]; 0.3 μM oligonucleotide, TNF-α stimulated HUVEC (control bound 19%))
ISIS 1570: phosphorothioate, human ICAM-1 AUG Codon (64-81), SEQ ID NO 1, TGGGAGCCATAGCGAGGC (antisense dT*dG*dG*dG*dA*dG*dC*dC*dA*dT*dA*dG*dC*dG*dA*dG*dG*dC)	approximately 50%	most active	blocked the effects of ISIS 1570	17	did not change the number of cells adhering		
ISIS 1939: P=S, human ICAM-1 3′-Untranslated (1952-1971), SEQ ID NO 15, CCCCCACCACTTCCCCTCTC (antisense dC*dC*dC*dC*dC*dA*dC*dC*dA*dC*dT*dT*dC*dC*dC*dC*dT*dC*dT*dC)		most active	completely blocked			near background	basal levels
